Laboratory results reported in patent US20040028749A1, “Treating inflammation and associated complications” (priority 2000, published 2004).

How the values were obtained:
[1] = intranasal 1 mM SCN^−, 1 mM Br^− or 100 μM NO2^−
Description: The following experiment is performed to determine if by directly manipulating the relative substrate halide composition of the intrabronchial luminal contents, the severity of the resulting EPO-mediated oxidative damage and so the severity of the induced pathologies can be influenced. […] From the day before initiation of aerosol ovalbumin challenge, four groups of guinea pigs (n=15) are subjected to intranasal instillation of 300 μL of PBS (100 mM Cl^−), PBS+1 mM NaSCN, PBS+1 mM NaBr, or PBS+100 μmol NaNO2 in each nostril. Intranasal instillation is performed every 6 hours until the time of analysis. The numbers of animals in each group is determined from power calculations assuming unpaired design. A group size of 15 animals per group allows for detecting a change in Br—Y, PC50, and histologic severity index amongst the OVA-challenged animal of ≧125% of the S.D. of the experimental groups with 90% power, P<0.05.
As for Section VI, Example 10, pulmonary functions, and chloro-, bromo-, and NO2—Y in BAL and whole lung homogenates are determined. […] Multiple linear regression is used to determine factors responsible for changes in PC50 or histologic severity of airway damage. PC50 or histologic severity is treated as a continuous variable and correlated Br—Y and NO2—Y levels in BAL and whole lung by multiple regression.

[2] = test system: EPO
Description: The EPO/NO2^−/H2O2 system generates reactive nitrogen species that generates bioactive eicosanoids, e.g. hydroxyeicosatetraenoic acids (HETEs) from unilamellar vesicles comprised of 1-palmitoyl-2-arachidonyl-sn-glycero-3-phosphocholine (PAPC). […] Reaction mixtures consisting of 0.8 mg lipid/mL PAPC, 60 nM EPO, 100 μM NO2^−, 100 ng/mL glucose oxidase, 100 μg/mL glucose were incubated for 2 hours at 37° C. HETEs were analyzed by lipid extraction and HPLC with on-line electrospray ionization tandem mass spectometry (LC/MS/MS).

[3] = SCN^− supplementation
Description: Four experimental groups, each comprised of 15 guinea pigs are utilized for these studies.
The first group is the control and receives KCl in lieu of KClO4 to control for the effect of potassium. […] Perchlorate treatments are initiated three days prior to OVA aerosol challenges and maintained throughout the experimental period until the time of analysis. Specimens are analyzed according to the protocol described. The experimental groups are compared using an appropriate statistical method (i.e., parametric or non-parametric) based upon ANOVA.
All four groups are then pooled to determine correlations between (i) methacholine challenge PC50 and (ii) BAL and whole lung Br—Y and NO2—Y levels. Correlations were also determined between (i) histologic severity and (ii) BAL and/or whole lung Br—Y and NO2—Y levels.

[4] = wild type mouse
Description: Mice were sensitized by intranasal instillation of Aspergillus and aeroallogen challenged one month later with aerosol saline (control) or Aspergillus (antigen challenged). At 2 days before the one-month aeroallogen challenge, one group of antigen-challenged animals received i.p. 0.5 mL of 0.1% KSCN and 0.1% KSCN in drinking water. Three days after the aeroallogen challenge, both groups were challenged with intranasal inoculums of Candida and 6 hours later subjected to BAL and the content of supernatant protein Br—Y determined using stable isotope dilution GC-MS.

[5] = target: EPO (Homo sapiens, UniProt P11678); settings: physiologic concentrations (20-120 μM) of SCN^−; 100 μM Br, 100 mM Cl^−
EPO (Homo sapiens, UniProt P11678), sequence (P11678 251-715 limits assumed): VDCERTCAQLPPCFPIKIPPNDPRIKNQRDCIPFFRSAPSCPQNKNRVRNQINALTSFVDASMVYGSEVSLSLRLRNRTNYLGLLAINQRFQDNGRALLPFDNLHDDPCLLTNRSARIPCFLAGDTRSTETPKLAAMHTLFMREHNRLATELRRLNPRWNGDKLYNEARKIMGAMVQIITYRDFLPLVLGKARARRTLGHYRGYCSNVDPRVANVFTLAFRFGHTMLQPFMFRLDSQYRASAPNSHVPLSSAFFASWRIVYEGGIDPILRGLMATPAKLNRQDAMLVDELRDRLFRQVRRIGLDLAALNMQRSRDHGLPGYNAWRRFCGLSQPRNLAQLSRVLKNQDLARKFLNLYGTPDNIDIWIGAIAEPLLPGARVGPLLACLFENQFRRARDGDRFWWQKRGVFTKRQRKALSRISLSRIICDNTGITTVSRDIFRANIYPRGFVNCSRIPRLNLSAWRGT
EPO (Homo sapiens, UniProt P11678), sequence (P11678 140-250 limits assumed): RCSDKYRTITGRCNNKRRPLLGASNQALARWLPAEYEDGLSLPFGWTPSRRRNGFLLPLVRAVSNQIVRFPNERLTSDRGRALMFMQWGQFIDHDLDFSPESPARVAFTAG
Source text: All other reagents were obtained from Sigma Chemical Co. (St. Louis, Mo.).

[6] = test system: LPO, or EPO; settings: 100 μM SCN^−, LPO or EPO present
[7] = test system: EPO or LPO; settings: O2^.− generating system
Description: NO decay was determined in phosphate buffer in the absence versus presence of plasma levels of halides using an NO-selective electrode. NO-saturated buffer was added to a continuously stirred reaction mixture.

SMILES: N#CS [SCN^−, thiocyanate]
- levels of Br—Y and NO2—Y and severity of resulting asthma [1]: ameliorates
- HETE generation from PAPC vesicles by EPO/SCN^−/H2O2 system ([2]; 100 μM SCN^−): no detectable HETEs
- HETE generation from PAPC vesicles by EPO/NO2^−/H2O2 system ([2]; physiological concentration of SCN^−): severely attenuated
- Br—Y and NO2—Y levels, functional and histologic pulmonary pathology [3]: will reduce
- BrY reduced from w.t. antigen-challenged ([4]; SCN supplemented): BrY 86% reduced
- Lavage fluid bromotyrosine ([4]; antigen challenge, 0.1% KSCN i.p. and in drinking water): 196 ± 103 μmol Br—Y/μmol Y
- EPO production of HOBr [5]: blocked
- mean lung Br—Y/Y (NaSCN i.p. and 0.2% in drinking water, OVA challenge): 0.93 mmol/mol
- rise of Br—Y/Y after OVA challenge (dietary supplementation with SCN^− prior to OVA challenge): completely abrogated
- relaxation of preconstricted bronchial rings in response to NO [6]: do so when high physiologic concentrations of SCN^− are added
- peroxidase-mediated NO consumption [7]: attenuation/inhibition of peroxidase-mediated NO consumption
